According to PubChem BioAssay (NCI):
Values joined by “and” are separate entries in the source; they are usually repeats but may differ in a detail not shown here. Identical values can stand only once.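 Each compound was tested at five concentrations against cells in 96-well plates for 48 hours. Abbreviation: GI50, concentration required for 50% inhibition of growth. TGI marks complete inhibition of growth.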

test system: SK-MEL-28 melanoma; experiment: growth of human tumour cells (NCI), 48 h

Structure (SMILES)	GI50 [µM]	TGI
O=C1c2cc3c(cc2-c2c1c1ccc(F)cc1c(=O)n2C[C@H](O)[C@@H](O)[C@H](O)CO)OCO3	0.195	0.765 µM
COc1ccc2[nH]cc(/C=C(/C)c3ccncc3)c2c1	9.02	> 100 µM
C=CC1(CC/C(=C\[N+](=O)[O-])c2ccc(OC)c(OC)c2)OCC(C)(C)CO1		50.3 µM
NS(=O)(=O)c1nnc(NC(=O)Nc2ccc(Cl)c(Cl)c2)s1		39.3 µM
COC(=O)[C@@H](O)[C@](O)(CCC(C)C)C(=O)O[C@@H]1C(OC)=C[C@]23CCCN2CCc2cc4c(cc2[C@H]13)OCO4		2.78 µM
CC(=O)Nn1c(=S)[nH]c2ccccc21		> 100 µM
CCCCOC(=O)Nc1ccc(S(=O)(=O)Nc2ccccc2Cl)cc1		36.2 µM
COc1ccc2cc1Oc1ccc(cc1)C[C@H]1c3cc(c(OC)cc3CCN1C)Oc1c(O)c(OC)cc3c1[C@H](C2)N(C)CC3		48.3 µM
Nc1ncnc2c1[nH]c(=O)n2-c1ccccc1		> 100 µM
CC1CN(C)c2ccccc2N=C1NN (stereo not given)		> 100 µM
O=C(c1ccccn1)C1(N2CCCCC2)CCCCC1		> 100 µM
Cc1ccc(NC(=O)CC2Sc3ccccc3NC2=O)cc1C (stereo not given)		> 100 µM
N[C@@H](CCC(=O)NCP(=O)(O)O)C(=O)O		> 100 µM
Cc1ccccc1C(=N)c1ccccc1Cc1cccc2ccccc12		54.1 µM
CCC(=O)NC(Nc1cc(C)on1)(C(F)(F)F)C(F)(F)F		> 100 µM
NC(=O)C(=Cn1c(=S)[nH]c2ccc([N+](=O)[O-])cc21)C(N)=O		> 100 µM
O=C1C=C[C@@H](COC2OC(CO)C(O)C(O)C2O)O1 (stereo not given in full)	11.8	26.1 µM and > 100 µM
O=c1[nH]c(=S)[nH]c2c1C(c1ccc([N+](=O)[O-])cc1)c1c([nH]c(=S)[nH]c1=O)O2		> 100 µM

test system: COLO 205 colon; experiment: growth of human tumour cells (NCI), 48 h

Structure (SMILES)	GI50 [µM]	TGI
O=C1c2cc3c(cc2-c2c1c1ccc(F)cc1c(=O)n2C[C@H](O)[C@@H](O)[C@H](O)CO)OCO3	0.106	0.546 µM
COc1ccc2[nH]cc(/C=C(/C)c3ccncc3)c2c1		16.4 µM and 13.9 µM
C=CC1(CC/C(=C\[N+](=O)[O-])c2ccc(OC)c(OC)c2)OCC(C)(C)CO1		43.4 µM
NS(=O)(=O)c1nnc(NC(=O)Nc2ccc(Cl)c(Cl)c2)s1		28.2 µM
COC(=O)[C@@H](O)[C@](O)(CCC(C)C)C(=O)O[C@@H]1C(OC)=C[C@]23CCCN2CCc2cc4c(cc2[C@H]13)OCO4		2.99 µM
CC(=O)Nn1c(=S)[nH]c2ccccc21		> 100 µM
CCCCOC(=O)Nc1ccc(S(=O)(=O)Nc2ccccc2Cl)cc1		45.2 µM
COc1ccc2cc1Oc1ccc(cc1)C[C@H]1c3cc(c(OC)cc3CCN1C)Oc1c(O)c(OC)cc3c1[C@H](C2)N(C)CC3		39.4 µM
Nc1ncnc2c1[nH]c(=O)n2-c1ccccc1		> 100 µM
CC1CN(C)c2ccccc2N=C1NN (stereo not given)		> 100 µM
O=C(c1ccccn1)C1(N2CCCCC2)CCCCC1		> 100 µM
Cc1ccc(NC(=O)CC2Sc3ccccc3NC2=O)cc1C (stereo not given)		> 100 µM
N[C@@H](CCC(=O)NCP(=O)(O)O)C(=O)O		> 100 µM
Cc1ccccc1C(=N)c1ccccc1Cc1cccc2ccccc12		76.9 µM
NC(=O)C(=Cn1c(=S)[nH]c2ccc([N+](=O)[O-])cc21)C(N)=O		> 100 µM
O=C1C=C[C@@H](COC2OC(CO)C(O)C(O)C2O)O1 (stereo not given in full)	3.44	14.4 µM and 19.5 µM
O=c1[nH]c(=S)[nH]c2c1C(c1ccc([N+](=O)[O-])cc1)c1c([nH]c(=S)[nH]c1=O)O2		> 100 µM

test system: HCT-116 colon; experiment: growth of human tumour cells (NCI), 48 h

Structure (SMILES)	GI50 [µM]	TGI
COc1ccc2[nH]cc(/C=C(/C)c3ccncc3)c2c1	3.67	16.8 µM and 20.5 µM
C=CC1(CC/C(=C\[N+](=O)[O-])c2ccc(OC)c(OC)c2)OCC(C)(C)CO1		71.9 µM
NS(=O)(=O)c1nnc(NC(=O)Nc2ccc(Cl)c(Cl)c2)s1		42.4 µM
COC(=O)[C@@H](O)[C@](O)(CCC(C)C)C(=O)O[C@@H]1C(OC)=C[C@]23CCCN2CCc2cc4c(cc2[C@H]13)OCO4		2.57 µM
CC(=O)Nn1c(=S)[nH]c2ccccc21		> 100 µM
CCCCOC(=O)Nc1ccc(S(=O)(=O)Nc2ccccc2Cl)cc1		41.6 µM
COc1ccc2cc1Oc1ccc(cc1)C[C@H]1c3cc(c(OC)cc3CCN1C)Oc1c(O)c(OC)cc3c1[C@H](C2)N(C)CC3		36 µM
Nc1ncnc2c1[nH]c(=O)n2-c1ccccc1		> 100 µM
CC1CN(C)c2ccccc2N=C1NN (stereo not given)		> 100 µM
O=C(c1ccccn1)C1(N2CCCCC2)CCCCC1		> 100 µM
Cc1ccc(NC(=O)CC2Sc3ccccc3NC2=O)cc1C (stereo not given)		> 100 µM
N[C@@H](CCC(=O)NCP(=O)(O)O)C(=O)O		> 100 µM
Cc1ccccc1C(=N)c1ccccc1Cc1cccc2ccccc12		46.9 µM
CCC(=O)NC(Nc1cc(C)on1)(C(F)(F)F)C(F)(F)F		> 100 µM
NC(=O)C(=Cn1c(=S)[nH]c2ccc([N+](=O)[O-])cc21)C(N)=O		> 100 µM
O=C1C=C[C@@H](COC2OC(CO)C(O)C(O)C2O)O1 (stereo not given in full)	2.63	10.5 µM and > 100 µM
O=c1[nH]c(=S)[nH]c2c1C(c1ccc([N+](=O)[O-])cc1)c1c([nH]c(=S)[nH]c1=O)O2		> 100 µM

test system: HT29 colon; experiment: growth of human tumour cells (NCI), 48 h

Structure (SMILES)	GI50 [µM]	TGI
COc1ccc2[nH]cc(/C=C(/C)c3ccncc3)c2c1	3.64	13.1 µM and 10.9 µM
C=CC1(CC/C(=C\[N+](=O)[O-])c2ccc(OC)c(OC)c2)OCC(C)(C)CO1		97.8 µM
NS(=O)(=O)c1nnc(NC(=O)Nc2ccc(Cl)c(Cl)c2)s1		37.9 µM
COC(=O)[C@@H](O)[C@](O)(CCC(C)C)C(=O)O[C@@H]1C(OC)=C[C@]23CCCN2CCc2cc4c(cc2[C@H]13)OCO4		12.2 µM
CC(=O)Nn1c(=S)[nH]c2ccccc21		> 100 µM
CCCCOC(=O)Nc1ccc(S(=O)(=O)Nc2ccccc2Cl)cc1		35.9 µM
COc1ccc2cc1Oc1ccc(cc1)C[C@H]1c3cc(c(OC)cc3CCN1C)Oc1c(O)c(OC)cc3c1[C@H](C2)N(C)CC3		55.2 µM
Nc1ncnc2c1[nH]c(=O)n2-c1ccccc1		> 100 µM
CC1CN(C)c2ccccc2N=C1NN (stereo not given)		> 100 µM
O=C(c1ccccn1)C1(N2CCCCC2)CCCCC1		> 100 µM
Cc1ccc(NC(=O)CC2Sc3ccccc3NC2=O)cc1C (stereo not given)		> 100 µM
N[C@@H](CCC(=O)NCP(=O)(O)O)C(=O)O		> 100 µM
Cc1ccccc1C(=N)c1ccccc1Cc1cccc2ccccc12		> 100 µM
CCC(=O)NC(Nc1cc(C)on1)(C(F)(F)F)C(F)(F)F		> 100 µM
NC(=O)C(=Cn1c(=S)[nH]c2ccc([N+](=O)[O-])cc21)C(N)=O		> 100 µM
O=C1C=C[C@@H](COC2OC(CO)C(O)C(O)C2O)O1 (stereo not given in full)	1.62	5.69 µM and 19.2 µM
O=c1[nH]c(=S)[nH]c2c1C(c1ccc([N+](=O)[O-])cc1)c1c([nH]c(=S)[nH]c1=O)O2		> 100 µM

test system: NCI-H23 lung; experiment: growth of human tumour cells (NCI), 48 h

Structure (SMILES)	GI50 [µM]	TGI [µM]
O=C1c2cc3c(cc2-c2c1c1ccc(F)cc1c(=O)n2C[C@H](O)[C@@H](O)[C@H](O)CO)OCO3	0.046	0.256
COc1ccc2[nH]cc(/C=C(/C)c3ccncc3)c2c1	7.07	
C=CC1(CC/C(=C\[N+](=O)[O-])c2ccc(OC)c(OC)c2)OCC(C)(C)CO1		37
NS(=O)(=O)c1nnc(NC(=O)Nc2ccc(Cl)c(Cl)c2)s1		39.4
COC(=O)[C@@H](O)[C@](O)(CCC(C)C)C(=O)O[C@@H]1C(OC)=C[C@]23CCCN2CCc2cc4c(cc2[C@H]13)OCO4		5.7
CC(=O)Nn1c(=S)[nH]c2ccccc21		> 100
